Test results: patent US20230165835A1, “METHODS OF TREATING ACUTE LUNG INJURY USING EBSELEN” (SOUND PHARMACEUTICALS INC., priority 2020, published 2023)
Entries after “also recorded” stand apart in the source; their conditions may differ. Like-named read-outs stand apart in the source and are kept apart here.

What was measured:
[1] = tested on: SARS-CoV-2; experiment: Reduction of SARS-CoV-2 viral load in Vero E6 cells (image based assay of Jin et al.); type: cell-based
[2] = Cystic fibrosis trial Part 2 Intervention: tobramycin-induced ototoxicity; type: in vivo, human
Method: (§1) Thirty of 80 participants were enrolled starting in January 2019. They were Cystic fibrosis patients ages 18-70 that had acute pulmonary exacerbation or acute respiratory infections that required treatment with IV tobramycin 10 mg/kg/d for 10-21 days. They were randomized into four groups (1:1:1:1) (0, 200, 400, or 600 BID) and treated for 21 days. There were four follow-up visits for safety (adverse events, spirometry, labs), and two follow-up visits for efficacy (audiometric and vestibular). The primary endpoint was a reduction in cochleotoxic change, and the secondary endpoints was a reduction in tinnitus or vertigo severity.

[3] = Cystic fibrosis trial (IV tobramycin + SPI-1005 0/200/400/600 BID, 21 days): FEV1; type: in vivo, human
Method: as §1

[4] = mice; Longenecker et al.; cited from earlier work
[5] = tested on: 18 common microbes; experiment: MIC assays against 18 common microbes (interference); type: cell-based; details: to support testing in CF patients
Description: We have studied the efficacy of ebselen in a number of indications including the treatment of Meniere's Disease, and in the treatment of ototoxicity in cystic fibrosis (CF) patients. Ebselen has an anti-inflammatory mechanism of action that is distinct from that of a classic corticosteroid immunosuppressive agent which can be beneficial in the treatment of respiratory viral infections. […] In addition, our Phase 2b study in cystic fibrosis (CF) patients with Pseudomonas is continuing without any safety issues. […] Our results and analysis in these other clinical studies supports the use of ebselen in the subject methods of treating or preventing conditions associated with respiratory viral infections described herein.
The anti-inflammatory mechanism of action of ebselen is unique and distinct over that of a classic corticosteroid immunosuppressive agent. […] In addition, our Phase 2b study in CF patients with Pseudomonas is continuing without any safety issues.

[6] = tested on: nCoV2; experiment: Study 6.2: ebselen in nCoV2 positive subjects with no to mild COVID-19, viral load; details: 400 to 600 mg BID for 7-10 days, no to mild disease
Method: Eligible participants are diagnosed as nCoV2 positive and enrolled for treatment within 1-5 days of appearance of symptoms. The patient is not treated with another anti-viral therapeutic agent prior to beginning of treatment. […] Randomization is stratified by age (<60 years or ≥60 years).
Ebselen is dosed as 400 to 600 mg BID for a period of 7-10 days. […] Participants receive study intervention for up to 10 days and are followed for 28 days after first dose.
Respiratory samples are taken before treatment begins and daily during treatment to assess nCoV2 viral load daily.
The primary efficacy endpoint is the time to significant reduction in pre-treatment viral load (see Zou et al.; Pan et al.). […] Other efficacy assessments are also performed and compared to baseline levels.
Follow-up assessments can be performed at 2, 4, and 8 weeks after the start of treatment. […] Extended dosing involves sub-chronic dosing of 4-12 weeks (e.g., 4, 8 or 12 weeks) with assessment of viral load until virus eliminated.

[7] = Study 6.6: ebselen in severe COVID-19; type: in vivo, human; details: 400 or 800 mg BID for 14 days
[8] = Solubility in aqueous solutions; details: 25° Celsius
[9] = Study 6.3: ebselen in mild to moderate COVID-19; type: in vivo, human; details: 400 to 600 mg BID for 14 to 21 days
[10] = Part 2 Intervention (1:1:1:1) pooled

Structure (SMILES): O=c1c2ccccc2[se]n1-c1ccccc1 [ebselen, 2-phenyl-1,2-benzisoselenazol-3(2H)-one]
- EC50 ([1]; SARS-CoV-2, ebselen 100 nM to 1000 μM in DMSO or EtOH, remdesivir 1 nM to 10 μM, listed as ebselen (EtOH), read-out: EC50, reduction in viral load in Vero E6 cells): 10.9 µM
- EC50 ([1]; Severe acute respiratory syndrome coronavirus 2, Vero C1008, SARS-CoV-2, ebselen 100 nM to 1000 μM in DMSO or EtOH, remdesivir 1 nM to 10 μM, read-out: EC50, reduction in viral load in Vero E6 cells): 21.3 µM
- EC50 ([1]; Severe acute respiratory syndrome coronavirus 2, Vero C1008, Vero E6 cells, ebselen added in DMSO, read-out: EC50, inhibition of viral load): 21 µM
- EC50 ([1]; Severe acute respiratory syndrome coronavirus 2, Vero C1008, Vero E6 cells, ebselen added in EtOH, read-out: EC50, inhibition of viral load): 11 µM
- inhibition of viral load (FIGS. 1A-C) ([1]; in vitro kidney cell assay (Vero E6 cells)): inhibited viral load
- ototoxic change versus Part 1 Observational study ([2]; 4 weeks after IV tobramycin treatment): lower levels of ototoxic change
- % Responders (Bilateral), Conv + SRO [2, 10]: 29%
- % Responders (Bilateral), Conventional [2, 10]: 5%
- % Responders (Bilateral), DPOAE [2, 10]: 40%
- % Responders (Bilateral), SRO [2, 10]: 21%
- % Responders (Bilateral), WINT [2, 10]: 0%
- % Responders (Unilateral), Conv + SRO [2, 10]: 29%
- % Responders (Unilateral), Conventional [2, 10]: 5%
- % Responders (Unilateral), DPOAE [2, 10]: 40%
- % Responders (Unilateral), SRO [2, 10]: 37%
- % Responders (Unilateral), WINT [2, 10]: 26%
- % Responders, Conv + SRO [2, 10]: 57%
- % Responders, DPOAE [2, 10]: 80%
- % Responders, SRO [2, 10]: 58%
- % Responders, TFI [2, 10]: 14%
- % Responders, TL [2, 10]: 0%
- % Responders, VSS [2, 10]: 5%
- % Responders, WINT [2, 10]: 26%
- % Responders, Conventional ([2]; Part 2 Intervention (1:1:1:1; 0, 200, 400, 600 BID pooled) with IV tobramycin, 4 weeks post-treatment): 10%
- change in lung functioning (FEV1) ([3]; 2 and 4 weeks, cystic fibrosis patients on IV tobramycin, versus Part 1 observation study): improvement in lung functioning (FEV1) at both 2 and 4 weeks; also recorded: improved relative FEV1% predicted at 2 and 4 weeks
- FEV1 score Mean (SD), 2 Week ([3]; pooled 0/200/400/600 BID groups, baseline 46.87 (13.68), n 17): 48.53 (14.57)
- FEV1 score Mean (SD), 4 Week ([3]; pooled 0/200/400/600 BID groups, baseline 46.87 (13.68), n 19): 52.68 (22.99)
- tinnitus and hyperacusis following amikacin-induced ototoxicity [4]: improvements in tinnitus and hyperacusis
- interference in MIC assays [5]: lack of interference
- viral load [6]: effective to reduce viral load
- respiratory status / time to clinical improvement (WHO ordinal scale) [7]: effective to improve in respiratory status, and/or reduce time to at least a 2-grade improvement from baseline on the WHO ordinal scale
- solubility in aqueous solutions [8]: slightly soluble
- respiratory status and progression to severe disease [9]: effective to improve in respiratory status and prevent progression to severe disease
